Results from ChEMBL document CHEMBL6071138, “Design, synthesis, anti-tumor activity and mechanism of novel PROTACs as degraders of PD-L1 and inhibitors of PD-1/PD-L1 interaction” (Bioorg Med Chem, 2024).
Activity calls are given as the source filed them. The rule behind the calls is not given here.

Experiments:
[1] = molecular target: T1, Protein cereblon/Programmed cell death 1 ligand 1 (Homo sapiens) (UniProt Q9NZQ7+Q96SW2); test: PROTAC activity at CRBN/PD-L1 in human HCC827 cells assessed as induction of PD-L1 protein degradation incubated for 24 hrs by Western blot analysis; type: cell-based; conditions: dose 0.25-10 µM
T1 sequence (Q96SW2 whole entry, looked up): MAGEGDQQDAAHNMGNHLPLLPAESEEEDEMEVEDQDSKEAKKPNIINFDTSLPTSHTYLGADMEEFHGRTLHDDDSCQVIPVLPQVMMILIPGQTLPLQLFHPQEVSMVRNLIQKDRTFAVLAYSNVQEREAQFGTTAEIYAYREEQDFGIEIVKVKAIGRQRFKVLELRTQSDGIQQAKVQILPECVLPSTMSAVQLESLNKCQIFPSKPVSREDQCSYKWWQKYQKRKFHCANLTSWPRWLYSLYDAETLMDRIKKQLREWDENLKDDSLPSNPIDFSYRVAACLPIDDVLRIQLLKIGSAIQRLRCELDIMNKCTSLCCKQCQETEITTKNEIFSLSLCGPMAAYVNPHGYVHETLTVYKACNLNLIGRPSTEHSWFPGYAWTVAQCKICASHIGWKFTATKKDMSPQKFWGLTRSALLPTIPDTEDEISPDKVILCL
T1 sequence (Q9NZQ7 whole entry, looked up): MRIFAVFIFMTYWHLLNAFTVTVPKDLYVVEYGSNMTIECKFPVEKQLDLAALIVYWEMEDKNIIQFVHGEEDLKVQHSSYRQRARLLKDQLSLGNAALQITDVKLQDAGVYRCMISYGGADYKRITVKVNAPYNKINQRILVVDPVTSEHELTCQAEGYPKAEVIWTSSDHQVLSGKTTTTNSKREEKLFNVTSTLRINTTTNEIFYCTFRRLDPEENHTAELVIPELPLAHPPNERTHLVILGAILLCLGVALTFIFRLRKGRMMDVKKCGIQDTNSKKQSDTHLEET

[2] = molecular target: T1, Protein cereblon/Programmed cell death 1 ligand 1 (Homo sapiens); test: PROTAC activity at CRBN/PD-L1 in human HCC827 cells assessed as induction of PD-L1 protein degradation at 20 uM measured within 24 hrs by Western blot analysis relative to control; type: cell-based
[3] = molecular target: T1, Protein cereblon/Programmed cell death 1 ligand 1 (Homo sapiens); test: PROTAC activity at CRBN/PD-L1 in human SK-N-AS cells assessed as induction of PD-L1 protein degradation at 0.25 to 10 uM incubated for 24 hrs by Western blot analysis; type: cell-based; conditions: dose 0.25-10 µM
[4] = molecular target: T1, Protein cereblon/Programmed cell death 1 ligand 1 (Homo sapiens); test: PROTAC activity at CRBN/PD-L1 in human 786-0 cells assessed as induction of PD-L1 protein degradation at 0.25 to 10 uM incubated for 24 hrs by Western blot analysis; type: cell-based; conditions: dose 0.25-10 µM
[5] = molecular target: Protein cereblon/Programmed cell death 1 ligand 1 (Mus musculus) (UniProt Q9EP73+Q8C7D2); test: PROTAC activity at CRBN/PD-L1 in mouse MC38 cells assessed as induction of PD-L1 protein degradation at 0.25 to 10 uM incubated for 24 hrs by Western blot analysis; type: cell-based; conditions: dose 0.25-10 µM
Protein cereblon/Programmed cell death 1 ligand 1 (Mus musculus), sequence (Q8C7D2 whole entry partner): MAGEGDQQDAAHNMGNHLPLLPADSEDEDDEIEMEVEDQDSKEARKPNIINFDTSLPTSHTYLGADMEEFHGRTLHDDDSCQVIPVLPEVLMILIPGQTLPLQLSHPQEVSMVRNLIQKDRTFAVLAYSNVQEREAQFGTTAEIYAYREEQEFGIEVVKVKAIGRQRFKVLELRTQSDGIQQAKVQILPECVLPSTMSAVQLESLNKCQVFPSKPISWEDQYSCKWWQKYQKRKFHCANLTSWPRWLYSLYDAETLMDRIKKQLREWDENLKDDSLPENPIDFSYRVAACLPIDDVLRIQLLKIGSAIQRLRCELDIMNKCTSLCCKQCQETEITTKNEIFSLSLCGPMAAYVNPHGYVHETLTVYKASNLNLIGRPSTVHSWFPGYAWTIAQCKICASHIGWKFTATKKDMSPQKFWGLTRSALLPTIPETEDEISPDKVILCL
Protein cereblon/Programmed cell death 1 ligand 1 (Mus musculus), sequence (Q9EP73 19-290 limits assumed): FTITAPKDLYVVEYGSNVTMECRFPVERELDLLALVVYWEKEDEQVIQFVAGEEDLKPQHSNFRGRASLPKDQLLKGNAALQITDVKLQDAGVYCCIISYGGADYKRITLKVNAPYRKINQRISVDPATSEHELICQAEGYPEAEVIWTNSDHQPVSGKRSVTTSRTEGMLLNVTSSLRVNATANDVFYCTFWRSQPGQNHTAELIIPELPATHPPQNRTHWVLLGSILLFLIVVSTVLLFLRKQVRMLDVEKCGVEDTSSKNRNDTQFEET

[6] = molecular target: T1, Protein cereblon/Programmed cell death 1 ligand 1 (Homo sapiens); test: PROTAC activity at CRBN/PD-L1 in human HCC827 cell membrane assessed as decrease in PD-L1 expression in membrane incubated for 24 hrs by flow cytometric analysis; type: cell membranes; conditions: dose 2.5-10 µM
[7] = molecular target: T1, Protein cereblon/Programmed cell death 1 ligand 1 (Homo sapiens); test: PROTAC activity at CRBN/PD-L1 in human HCC827 cell membrane assessed as decrease in PD-L1 expression in membrane at 10 uM incubated for 24 hrs by Western blotting; type: cell membranes
[8] = molecular target: T1, Protein cereblon/Programmed cell death 1 ligand 1 (Homo sapiens); test: PROTAC activity at CRBN/PD-L1 in human HCC827 cell cytoplasm assessed as decrease in PD-L1 expression in cytoplasm at 10 uM incubated for 24 hrs by Western blotting; type: subcellular
[9] = molecular target: T1, Protein cereblon/Programmed cell death 1 ligand 1 (Homo sapiens); test: PROTAC activity at CRBN/PD-L1 in human HCC827 cells assessed as induction of PD-L1 internalization at cell membrane by measuring decrease in fluorescence intensity of cell membrane at 10 uM incubated for 12 to 24 hrs by DAPI immunostaining based confocal scanning microscopic analysis; conditions: time 12-24 hrs
[10] = molecular target: T1, Protein cereblon/Programmed cell death 1 ligand 1 (Homo sapiens); test: PROTAC activity at CRBN/PD-L1 in human HCC827 cells assessed as induction of PD-L1 internalization at cell membrane by measuring increase in fluorescence intensity around nucleus at 10 uM incubated for 12 hrs by DAPI immunostaining based confocal scanning microscopic analysis
[11] = molecular target: T1, Protein cereblon/Programmed cell death 1 ligand 1 (Homo sapiens); test: PROTAC activity at CRBN/PD-L1 in human HCC827 cells assessed as induction of PD-L1 degradation at 10 uM preincubated with 5-((5-((2-chloro-2'-fluoro-[1,1'-biphenyl]-3-yl)methoxy)-2-(((2-hydroxyethyl)amino)methyl)phenoxy)methyl)nicotinonitrile for 4 hrs followed by compound addition and measured after 24 hrs by Western blotting; type: cell-based
[12] = molecular target: T1, Protein cereblon/Programmed cell death 1 ligand 1 (Homo sapiens); test: PROTAC activity at CRBN/PD-L1 in human HCC827 cells assessed as induction of PD-L1 degradation at 10 uM preincubated with MG132 for 4 hrs followed by compound addition and measured after 24 hrs by Western blotting; type: cell-based
[13] = molecular target: T1, Protein cereblon/Programmed cell death 1 ligand 1 (Homo sapiens); test: PROTAC activity at CRBN/PD-L1 in human HCC827 cells assessed as induction of PD-L1 degradation at 10 uM preincubated with pomalidomide for 4 hrs followed by compound addition and measured after 24 hrs by Western blotting; type: cell-based
[14] = molecular target: T1, Protein cereblon/Programmed cell death 1 ligand 1 (Homo sapiens); test: PROTAC activity at CRBN/PD-L1 in human HCC827 cells assessed as induction of PD-L1 degradation at 10 uM preincubated with bafilomycin A1 for 4 hrs followed by compound addition and measured after 24 hrs by Western blotting; type: cell-based
HCC827 [15] = test: Antitumor activity against human HCC827 cells co-cultured with PMA-activated human Jurkat T cells assessed as T cell mediated tumor killing by measuring survival rate at 10 uM incubated for 24 hrs by CCK8 assay relative to control; type: functional; conditions: read-out: Survival
MC-38 [16] = test: Antitumor activity against mouse MC38 cells implanted in female C57BL/6 mouse model assessed as tumor growth inhibition at 10 mg/kg, ip administered once daily for 15 days relative to control; type: functional; conditions: MC-38, 360 h, time 15 day, read-out: TGI
MC-38 [17] = test: Antitumor activity against mouse MC38 cells implanted in female C57BL/6 mouse model assessed as tumor growth inhibition at 20 mg/kg, ip administered once daily for 15 days relative to control; type: functional; conditions: MC-38, 360 h, time 15 day, read-out: TGI
[18] = Toxicity in female C57BL/6 mouse implanted with mouse MC38 cells assessed as effect on body weight at 10 to 20 mg/kg, ip administered once daily for 15 days; type: organism-based; conditions: in vivo, 360 h, dose 10-20 mg/kg, time 15 day
Mus musculus [19] = test: In vivo PROTAC activity at CRBN/PD-L1 in female C57BL/6 mouse implanted with mouse MC38 cells assessed as decrease in PD-L1 protein expression in tumor at 10 to 20 mg/kg, ip administered once daily for 15 days by hematoxylin staining based immunohistochemistry; type: functional, organism-based; conditions: dose 10-20 mg/kg, time 15.0 day
Mus musculus [20] = test: Immunoregulatory activity in female C57BL/6 mouse model implanted with mouse MC38 cells assessed as increase in CXCR3 mRNA level in tumor at 10 to 20 mg/kg, ip administered once daily for 15 days by qPCR analysis; type: functional, organism-based; conditions: dose 10-20 mg/kg, time 15.0 day
Mus musculus [21] = test: Immunoregulatory activity in female C57BL/6 mouse model implanted with mouse MC38 cells assessed as increase in CXCL9 mRNA level in tumor at 10 to 20 mg/kg, ip administered once daily for 15 days by qPCR analysis; type: functional, organism-based; conditions: dose 10-20 mg/kg, time 15.0 day
Mus musculus [22] = test: Immunoregulatory activity in female C57BL/6 mouse model implanted with mouse MC38 cells assessed as increase in CXCL10 mRNA level in tumor at 10 to 20 mg/kg, ip administered once daily for 15 days by qPCR analysis; type: functional, organism-based; conditions: dose 10-20 mg/kg, time 15.0 day
Mus musculus [23] = test: Immunoregulatory activity in female C57BL/6 mouse model implanted with mouse MC38 cells assessed as increase in CD8+/CD4+ ratio in tumor at 10 to 20 mg/kg, ip administered once daily for 15 days by flow cytometric analysis; type: functional, organism-based; conditions: dose 10-20 mg/kg, time 15.0 day
Mus musculus [24] = test: Immunoregulatory activity in female C57BL/6 mouse model implanted with mouse MC38 cells assessed as increase in CD8+/CD4+ ratio in lymph node at 10 to 20 mg/kg, ip administered once daily for 15 days by flow cytometric analysis; type: functional, organism-based; conditions: dose 10-20 mg/kg, time 15.0 day
Mus musculus [25] = test: Immunoregulatory activity in female C57BL/6 mouse model implanted with mouse MC38 cells assessed as increase in granzyme B expression at 10 to 20 mg/kg, ip administered once daily for 15 days by hematoxylin staining based immunohistochemistry; type: functional, organism-based; conditions: dose 10-20 mg/kg, time 15.0 day
Mus musculus [26] = test: Immunoregulatory activity in female C57BL/6 mouse model implanted with mouse MC38 cells assessed as increase in perforin expression at 10 to 20 mg/kg, ip administered once daily for 15 days by hematoxylin staining based immunohistochemistry; type: functional, organism-based; conditions: dose 10-20 mg/kg, time 15.0 day
[27] = molecular target: Programmed cell death protein 1/Programmed cell death 1 ligand 1 (Homo sapiens, UniProt Q9NZQ7); test: Inhibition of human PD-1/PD-L1 interaction by HTRF assay; type: protein-complex assay
Programmed cell death protein 1/Programmed cell death 1 ligand 1, sequence (Q15116 whole entry, the tested form may be a part): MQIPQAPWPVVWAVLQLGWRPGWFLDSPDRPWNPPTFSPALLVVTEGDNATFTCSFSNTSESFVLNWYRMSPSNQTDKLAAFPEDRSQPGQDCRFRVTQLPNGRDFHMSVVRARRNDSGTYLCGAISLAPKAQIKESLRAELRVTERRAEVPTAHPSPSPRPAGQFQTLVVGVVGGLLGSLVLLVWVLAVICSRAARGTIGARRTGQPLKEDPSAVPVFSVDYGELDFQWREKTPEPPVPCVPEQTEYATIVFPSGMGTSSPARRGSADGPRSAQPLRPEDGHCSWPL
Programmed cell death protein 1/Programmed cell death 1 ligand 1, sequence (Q9NZQ7 whole entry, the tested form may be a part): as the sequence (Q9NZQ7 whole entry, looked up) above

[28] = Binding affinity to C-terminal fused with Fc region of human IgG1 recombinant human PD-L1 extracellular domain (1 to 239 residues) extracted from HEK293 cells assessed as dissociation constant by MST analysis; type: cell-free
HCC827 [29] = test: Effect on PD-L1 protein expression in human HCC827 cells at 10 uM incubated for 24 hrs by Western blot analysis; type: functional, cell-based
[30] = molecular target: T1, Protein cereblon/Programmed cell death 1 ligand 1 (Homo sapiens); test: PROTAC activity at CRBN/PD-L1 in human HCC827 cells assessed as induction of PD-L1 protein degradation at 10 uM measured within 24 hrs by Western blot analysis relative to control; type: cell-based
HCC827 [31] = test: Antitumor activity against human HCC827 cells co-cultured with PMA-activated human Jurkat T cells assessed as T cell mediated tumor killing by measuring survival rate at 5 uM incubated for 24 hrs by CCK8 assay relative to control; type: functional; conditions: read-out: Survival
[32] = molecular target: von Hippel-Lindau disease tumor suppressor/Programmed cell death 1 ligand 1 (Homo sapiens) (UniProt P40337+Q9NZQ7); test: PROTAC activity at VHL/PD-L1 in human HCC827 cells assessed as induction of PD-L1 protein degradation incubated for 24 hrs by Western blot analysis; type: cell-based; conditions: dose 0.25-10 µM
von Hippel-Lindau disease tumor suppressor/Programmed cell death 1 ligand 1 (Homo sapiens), sequence (P40337 whole entry, looked up): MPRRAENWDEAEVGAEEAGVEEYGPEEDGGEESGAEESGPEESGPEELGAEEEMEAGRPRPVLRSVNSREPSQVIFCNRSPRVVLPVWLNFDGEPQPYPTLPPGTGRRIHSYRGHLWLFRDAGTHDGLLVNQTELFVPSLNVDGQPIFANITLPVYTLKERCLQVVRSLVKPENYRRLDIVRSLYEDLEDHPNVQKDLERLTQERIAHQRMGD
von Hippel-Lindau disease tumor suppressor/Programmed cell death 1 ligand 1 (Homo sapiens), sequence (Q9NZQ7 whole entry, looked up): as the sequence (Q9NZQ7 whole entry, looked up) above

SMILES: N#Cc1cncc(COc2cc(OCc3cccc(-c4ccccc4F)c3Cl)ccc2CNCCOCCOCCNc2cccc3c2C(=O)N(C2CCC(=O)NC2=O)C3=O)c1 (stereo not given)
- Activity [1]: Dose-Dependent Effect
- Activity [2]: 60.9%
- Activity [3]: Active
- Activity [4]: Active
- Activity [5]: Active
- Activity [6]: Dose-Dependent Effect
- Activity [7]: Active
- Activity [8]: Active
- Activity [9]: Active
- Activity [10]: Active
- Activity [11]: inactive
- Activity [12]: inactive
- Activity [13]: inactive
- Activity [14]: inactive
- viability at 10 µM (HCC827 [15]): 50.6%
- inhibition in vivo at 10 mg/kg (MC-38 [16]): 48.7%
- inhibition in vivo at 20 mg/kg (MC-38 [17]): 57.4%
- Activity [18]: Non-Toxic
- Activity (Mus musculus [19]): Active
- Activity (Mus musculus [20]): Active
- Activity (Mus musculus [21]): Active
- Activity (Mus musculus [22]): Active
- Activity (Mus musculus [23]): Active
- Activity (Mus musculus [24]): Active
- Activity (Mus musculus [25]): Active
- Activity (Mus musculus [26]): Active
- IC50 [27]: 197 nM
- Kd [28]: 301 nM

SMILES: Nc1cccc2c1C(=O)N(C1CCC(=O)NC1=O)C2=O (stereo not given)
- Activity (HCC827 [29]): inactive

SMILES: N#Cc1cncc(COc2cc(OCc3cccc(-c4ccccc4F)c3Cl)ccc2CNCCOCCOCCOCCNc2cccc3c2C(=O)N(C2CCC(=O)NC2=O)C3=O)c1 (stereo not given)
- Activity [1]: Dose-Dependent Effect
- Activity [30]: 58%
- Activity [3]: Active
- Activity [4]: Active
- Activity [5]: Active
- Activity [6]: Dose-Dependent Effect
- Activity [7]: Active
- Activity [8]: Active
- Activity [9]: Active
- Activity [10]: Active
- Activity [11]: inactive
- Activity [12]: inactive
- Activity [13]: inactive
- Activity [14]: inactive
- viability at 5 µM (HCC827 [31]): 73.2%
- inhibition in vivo at 10 mg/kg (MC-38 [16]): 34.6%
- inhibition in vivo at 20 mg/kg (MC-38 [17]): 54.9%
- Activity [18]: Non-Toxic
- Activity (Mus musculus [19]): Active
- Activity (Mus musculus [20]): Active
- Activity (Mus musculus [21]): Active
- Activity (Mus musculus [22]): Active
- Activity (Mus musculus [23]): Active
- Activity (Mus musculus [24]): Active
- Activity (Mus musculus [25]): Active
- Activity (Mus musculus [26]): Active
- IC50 [27]: 219 nM
- Kd [28]: 251 nM

SMILES: N#Cc1cncc(COc2cc(OCc3cccc(-c4ccccc4F)c3Cl)ccc2CNCc2cn(CCCCCC(=O)Nc3cccc4c3CN(C3CCC(=O)NC3=O)C4=O)nn2)c1 (stereo not given)
- Activity [1]: Dose-Dependent Effect

SMILES: Cc1ncsc1-c1ccc([C@H](C)NC(=O)[C@@H]2C[C@@H](O)CN2C(=O)[C@@H](NC(=O)CCOCCOCCOCCOCCNCc2ccc(OCc3cccc(-c4ccccc4F)c3Cl)cc2OCc2cncc(C#N)c2)C(C)(C)C)cc1
- Activity [32]: Dose-Dependent Effect

SMILES: N#Cc1cncc(COc2cc(OCc3cccc(-c4ccccc4F)c3Cl)ccc2CNCCO)c1
- Activity (HCC827 [29]): inactive
- Kd [28]: 20.2 nM

SMILES: N#Cc1cncc(COc2cc(OCC3C=CC=C(c4ccccc4F)C3Cl)ccc2CNCCOCCOCCOCCOCCOCCOCCC(=O)Nc2cccc3c2CN(C2CCC(=O)NC2=O)C3=O)c1 (stereo not given)
- Activity [1]: Dose-Dependent Effect

SMILES: N#Cc1cncc(COc2cc(OCc3cccc(-c4ccccc4F)c3Cl)ccc2CNCCCCCNc2cccc3c2C(=O)N(C2CCC(=O)NC2=O)C3=O)c1 (stereo not given)
- Activity [1]: Dose-Dependent Effect

SMILES: Cc1ncsc1-c1ccc([C@H](C)NC(=O)[C@@H]2C[C@@H](O)CN2C(=O)[C@@H](NC(=O)CCCNCc2ccc(OCc3cccc(-c4ccccc4F)c3Cl)cc2OCc2cncc(C#N)c2)C(C)(C)C)cc1
- Activity [32]: Dose-Dependent Effect

SMILES: N#Cc1cncc(COc2cc(OCc3cccc(-c4ccccc4F)c3Cl)ccc2CNCCCCCCCCNc2cccc3c2C(=O)N(C2CCC(=O)NC2=O)C3=O)c1 (stereo not given)
- Activity [1]: Dose-Dependent Effect
